{
  "source": "patent US20210386829A1",
  "about": "“COMPOSITIONS AND METHODS FOR MODULATING CGRP SIGNALING TO REGULATE INNATE LYMPHOID CELL INFLAMMATORY RESPONSES” (The Broad Institute, Inc., priority 2018, published 2021)",
  "key": {"[1]": {"test_system": "IL-33-induced airway inflammation in RAG2 KO mice", "experiment": "IL-33-induced airway inflammation in RAG2 KO mice, intranasal co-administration of CGRP", "assay_type": "in vivo, mouse", "conditions": "IL-33+CGRP vs IL-33 alone", "description": "Animals. All experiments involving mice were approved by the Institutional Animal Care and Use Committee (IACUC) at Brigham and Women's Hospital. Mice were maintained in the animal facility at Brigham and Women's Hospital under specific pathogen-free conditions with food and water ad libitum and a 12-hour dark/light cycle. Mice were age- and sex-matched for experiments and were randomly assigned to experimental groups. C57BL/6J mice and RAG2 KO mice were purchased from the Jackson Laboratory. CGRP-GFP-hDTR mice were kindly provided by I. Chiu (Harvard Medical School, Boston).\nCytokine-induced airway inflammation. Mice received nasally 500 ng IL-25, 500 ng IL-33, 20 ug NMU or 6.65 ug CGRP diluted in DPBS for three consecutive days. For nasal administration, mice were lightly anesthetized with Isoflurane (Cat #07-893-1389; Patterson Veterinary). For induction of inflammatory ILC2s, mice received intraperitoneally 500 ng IL-25 for three consecutive days. One day after the last treatment, mice were euthanized and perfused with 8 ml cold PBS via the right heart ventricle. After exposure of the trachea, a small incision was made at the top of the trachea and a curved gavage needle was inserted. Lungs were washed with 1.5 ml cold PBS via the needle and the retrieved bronchoalveolar lavage fluid was centrifuged at 1300 rpm for 5 min at 4 C. After centrifugation, the supernatant was frozen at −20° C. and the cell pellet was resuspended in 250 ul complete medium and stored on ice until flow cytometric analysis. The post-caval lung lobe was transferred into 10% buffered formalin and stored at room temperature until paraffin embedding for histological analysis. The other lung lobes were dissociated using the lung dissociation kit (Cat #130-095-927; Miltenyi Biotec) and automated tissue dissociator (gentleMACS; Miltenyi Biotec) as described above with the adjustment that after running program lung_02, the single cell suspension was centrifuged at 1300 rpm for 5 min at 4° C. and 1 ml of the supernatant was frozen at −20° C. Single-cell suspension was resuspended in complete cell culture medium and stored on ice until further processing.\nFor cell counts, lung cells were transferred into FACS tubes and stained with 7AAD. Precision Count Beads (Cat #424902; BioLegend) were added according to manufacturer's instructions. Cells and beads were acquired on a BD LSRFortessa (BD Biosciences) and cell numbers were calculated based on number of acquired live (7AAD−) cells and number of acquired beads.\nFor flow cytometric analysis, lung cells were transferred into a 96 well V-bottom plate and stained with surface antibodies for 20 min at 4° C. in the dark. Cells were washed twice with DPBS containing 2% fetal bovine serum and transferred into 1.2 ml tubes for analysis by flow cytometry. For intracellular cytokine staining, cells were incubated in complete cell culture medium with 50 ng/ml phorbol 12-myristate 13-acetate (Sigma-Aldrich), 1 uM ionomycin (Sigma-Aldrich) and GolgiStop (Cat #554724; BD Biosciences) in a humidified incubator at 37° C. and 10% CO2. After 5 hours, cells were transferred into 96 well V-bottom plate, stained with Fixable Viability Dye eFluor 506 (Cat #65-0866-14; Thermo Fisher) and surface antibodies for 20 min at 4° C. in the dark and washed twice with DPBS containing 2% fetal bovine serum. Then, cells were incubated with BD Cytofix/Cytoperm Buffer (Cat #51-2090KZ; BD Biosciences) for 20 min, followed by a wash with BD Perm/Wash Buffer (Cat #51-2091KZ; BD Biosciences). Subsequently, cells were incubated with antibodies targeting intracellular proteins diluted in BD Perm/Wash Buffer for 20 min and after two wash steps, transferred into 1.2 ml tubes for analysis by flow cytometry. […]"}, "ILC2s": {"test_system": "ILC2s", "conditions": "recent report (Sui et al., 2018); cited from earlier work"}},
  "data": [
    {"substance": "CGRP: neuropeptide calcitonin gene-related peptide (encoded by Calca), ligand of the Ramp1/Calcrl receptor; given at 100 nM in vitro, 6.65 ug nasally", "values": [
      {"measurement": "Il5 and Il13 transcripts in lung tissue", "setting": "[1]", "result": "significantly reduced"},
      {"measurement": "concentration of IL-5 and IL-13 protein in lung homogenates and BALF", "setting": "[1]", "result": "significantly reduced"},
      {"measurement": "eosinophil numbers in lung tissue and BALF", "setting": "[1]", "result": "significantly reduced"},
      {"measurement": "frequency of IL-5-positive ILCs", "setting": "[1]", "result": "no difference"},
      {"measurement": "frequency of IL-13-positive ILC2s", "setting": "[1]", "result": "significantly lower"},
      {"measurement": "total numbers of lung ILCs", "setting": "[1]", "result": "marked reduction"},
      {"measurement": "frequency of lung ILCs", "setting": "[1]; intranasal, three consecutive days", "result": "non-significant trend towards a reduced frequency"},
      {"measurement": "IL-5 and amphiregulin (Areg) production by ILC2s", "setting": "ILC2s", "result": "enhanced"}
    ]}
  ]
}
